Source: paper PMC4861903, “Synthesis of a highly water-soluble acacetin prodrug for treating experimental atrial fibrillation in beagle dogs” (Scientific Reports, 2016)
Read-outs that look alike come from different tables or passages of the source.

Legend:
[1] = Aqueous solubility by HPLC in H2O, 5% glucose and 0.9% NaCl; format: physicochemical; conditions: for solubility: 24 °C, room temperature (23–25 °C), n = 3, read-out: maximum solubility
[2] = Ex vivo bioconversion of acacetin prodrug in rat liver microsome; format: in vitro ADME; conditions: 37 °C, n = 3
Protocol: The ex vivo bioconversion of acacetin prodrug was determined in rat plasma or rat hepatic microsome that contains high content alkaline phosphatase, as described previously[30] and in Supplemental Materials. The in vivo bioconversion of acacetin prodrug was determined in beagle dogs as described in Supplemental Materials. […]
Bioconversion of acacetin prodrug was also determined in rat hepatic microsomes containing high content alkaline phosphatase,5 as described previously.6 Sprague-Dawley rat liver microsomes were purchased from Invitrogen (Hong Kong, China). The reaction mixture was prepared in 50 mM Tris-HCl buffer (pH = 7.4) with 1 mM NADPH (nicotinamide adenine dinucleotide phosphate) and 0.5 mg/mL (total protein) microsomes. Prodrug solutions were added to the microsomes reaction mixture with a final concentration of 5 µg/mL. The reaction solution was incubated in a water bath at 37℃ and shaken at 60 rpm for 1 h. The samples were collected at 0, 1, 2, 15, 30 and 60 min. The reaction was terminated by adding 200 μL cold methanol containing internal standard (pentamethylquercetin, 50 ng/ml). After centrifugation at 12000 g for 30 min, the supernatant was immediately analyzed by HPLC. […]

QTc interval = test: ECG QTc interval in anesthetized beagle dogs; format: in vivo; conditions: for QTc interval after drug administration: at 35 min after administration, P = NS
Protocol: QTc (corrected QT) interval of ECG was analyzed in anesthetized beagle dogs before and at 35 min after drug administration. QTc interval was not altered (P = NS, before vs. after drug administration) in vehicle animals (n = 5, 273.6 ± 2.6 ms vs. 276.1 ± 4.2 ms) and animals treated with 3 mg/kg (n = 6, 279.5 ± 2.5 ms vs. 282.3 ± 1.7 ms), 6 mg/kg (n = 8, 276.9 ± 2.4 ms vs. 279.1 ± 2.3 ms), or 12 mg/kg (n = 7, 274.1 ± 3.5 ms vs. 278.7 ± 2.9 ms) acacetin prodrug. […]
China) were anesthetized with pentobarbital (40 mg/kg, i.v.), supplemented as necessary during the experiment. The animal was kept on an operation table maintained at 37°C, intubated and ventilated with room air. The left femoral vein was cannulated to maintain fluid balance, anesthesia, and test articles. Lead II electrocardiogram (ECG) was continuously monitored with using a digital recording system (RM6240, Chengdu Instruments, China)
An action potential (MAP) recording- and pacing-catheter (Boston Scientific Ltd) was introduced to the right atrium through right jugular vein, and an electrical pacing catheter was introduced to left ventricle via […] for ventricular pacing (when necessary).
Bilateral cervical vagal nerves were isolated and bipolar electrodes were placed to stimulate efferent vagal nerves with 15 Hz, 0.2 ms duration voltage step (80-100% threshold) to induce a 50% reduction of heart rate. Ventricular pacing was performed with 2-ms voltage pulses (2.5 Hz, 150% diastolic threshold) when vagal nerves were continuously stimulated. […]
Instruments, China). […]

## COc1ccc(-c2cc(=O)c3c(O)cc(OP(=O)([O-])[O-])cc3o2)cc1.[Na+].[Na+] [acacetin prodrug, phosphate sodium salt of acacetin]
[1]; saline or isotonic, in 0.9% NaCl
  solubility: 88.6 ± 4.3 mg/mL
[1]; saline or isotonic, in 5% glucose
  solubility: 91.4 ± 2.7 mg/mL
[1]; water, in H2O
  solubility: 126 ± 2.5 mg/mL
[1]; in 5% glucose or 0.9% NaCl
  solubility higher compared to parent compound acacetin: more than forty five thousand folds higher
[1]; in H2O
  solubility higher compared to parent compound acacetin: more than 1.9 million folds
[2]; 1 min incubation
  prodrug converted into acacetin: 60%
[2]; 30 min incubation
  prodrug converted into acacetin: 100%
QTc interval; 3 mg/kg i.v., n = 6, before 279.5 ± 2.5 ms
  QTc interval after drug administration: 282.3 ± 1.7 ms
QTc interval; 6 mg/kg i.v., n = 8, before 276.9 ± 2.4 ms
  QTc interval after drug administration: 279.1 ± 2.3 ms
QTc interval; 12 mg/kg i.v., n = 7, before 274.1 ± 3.5 ms
  QTc interval after drug administration: 278.7 ± 2.9 ms
QTc interval; 3, 6 and 12 mg/kg i.v., beagle dogs
  effect on QT interval: no effect
